Activity calls are given as the source filed them.
Assays:
[1] = viability loss in HeLa cells – cytotoxicity control for MgcRacGAP inhibitor project, dose response (AID 624300); type: functional
[2] = molecular target: Fatty acid synthase (Homo sapiens, UniProt P49327); assay: inhibition of human FAS-TE enzyme activity – biochemical, endpoint fluorescence intensity, uHTS hits, dose response (AID 624327); type: functional;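 also: fluorescence from hydrolysis of an O-methyl fluorescein acyl ester substrate by the enzyme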
Sequence of Fatty acid synthase (P49327 whole entry): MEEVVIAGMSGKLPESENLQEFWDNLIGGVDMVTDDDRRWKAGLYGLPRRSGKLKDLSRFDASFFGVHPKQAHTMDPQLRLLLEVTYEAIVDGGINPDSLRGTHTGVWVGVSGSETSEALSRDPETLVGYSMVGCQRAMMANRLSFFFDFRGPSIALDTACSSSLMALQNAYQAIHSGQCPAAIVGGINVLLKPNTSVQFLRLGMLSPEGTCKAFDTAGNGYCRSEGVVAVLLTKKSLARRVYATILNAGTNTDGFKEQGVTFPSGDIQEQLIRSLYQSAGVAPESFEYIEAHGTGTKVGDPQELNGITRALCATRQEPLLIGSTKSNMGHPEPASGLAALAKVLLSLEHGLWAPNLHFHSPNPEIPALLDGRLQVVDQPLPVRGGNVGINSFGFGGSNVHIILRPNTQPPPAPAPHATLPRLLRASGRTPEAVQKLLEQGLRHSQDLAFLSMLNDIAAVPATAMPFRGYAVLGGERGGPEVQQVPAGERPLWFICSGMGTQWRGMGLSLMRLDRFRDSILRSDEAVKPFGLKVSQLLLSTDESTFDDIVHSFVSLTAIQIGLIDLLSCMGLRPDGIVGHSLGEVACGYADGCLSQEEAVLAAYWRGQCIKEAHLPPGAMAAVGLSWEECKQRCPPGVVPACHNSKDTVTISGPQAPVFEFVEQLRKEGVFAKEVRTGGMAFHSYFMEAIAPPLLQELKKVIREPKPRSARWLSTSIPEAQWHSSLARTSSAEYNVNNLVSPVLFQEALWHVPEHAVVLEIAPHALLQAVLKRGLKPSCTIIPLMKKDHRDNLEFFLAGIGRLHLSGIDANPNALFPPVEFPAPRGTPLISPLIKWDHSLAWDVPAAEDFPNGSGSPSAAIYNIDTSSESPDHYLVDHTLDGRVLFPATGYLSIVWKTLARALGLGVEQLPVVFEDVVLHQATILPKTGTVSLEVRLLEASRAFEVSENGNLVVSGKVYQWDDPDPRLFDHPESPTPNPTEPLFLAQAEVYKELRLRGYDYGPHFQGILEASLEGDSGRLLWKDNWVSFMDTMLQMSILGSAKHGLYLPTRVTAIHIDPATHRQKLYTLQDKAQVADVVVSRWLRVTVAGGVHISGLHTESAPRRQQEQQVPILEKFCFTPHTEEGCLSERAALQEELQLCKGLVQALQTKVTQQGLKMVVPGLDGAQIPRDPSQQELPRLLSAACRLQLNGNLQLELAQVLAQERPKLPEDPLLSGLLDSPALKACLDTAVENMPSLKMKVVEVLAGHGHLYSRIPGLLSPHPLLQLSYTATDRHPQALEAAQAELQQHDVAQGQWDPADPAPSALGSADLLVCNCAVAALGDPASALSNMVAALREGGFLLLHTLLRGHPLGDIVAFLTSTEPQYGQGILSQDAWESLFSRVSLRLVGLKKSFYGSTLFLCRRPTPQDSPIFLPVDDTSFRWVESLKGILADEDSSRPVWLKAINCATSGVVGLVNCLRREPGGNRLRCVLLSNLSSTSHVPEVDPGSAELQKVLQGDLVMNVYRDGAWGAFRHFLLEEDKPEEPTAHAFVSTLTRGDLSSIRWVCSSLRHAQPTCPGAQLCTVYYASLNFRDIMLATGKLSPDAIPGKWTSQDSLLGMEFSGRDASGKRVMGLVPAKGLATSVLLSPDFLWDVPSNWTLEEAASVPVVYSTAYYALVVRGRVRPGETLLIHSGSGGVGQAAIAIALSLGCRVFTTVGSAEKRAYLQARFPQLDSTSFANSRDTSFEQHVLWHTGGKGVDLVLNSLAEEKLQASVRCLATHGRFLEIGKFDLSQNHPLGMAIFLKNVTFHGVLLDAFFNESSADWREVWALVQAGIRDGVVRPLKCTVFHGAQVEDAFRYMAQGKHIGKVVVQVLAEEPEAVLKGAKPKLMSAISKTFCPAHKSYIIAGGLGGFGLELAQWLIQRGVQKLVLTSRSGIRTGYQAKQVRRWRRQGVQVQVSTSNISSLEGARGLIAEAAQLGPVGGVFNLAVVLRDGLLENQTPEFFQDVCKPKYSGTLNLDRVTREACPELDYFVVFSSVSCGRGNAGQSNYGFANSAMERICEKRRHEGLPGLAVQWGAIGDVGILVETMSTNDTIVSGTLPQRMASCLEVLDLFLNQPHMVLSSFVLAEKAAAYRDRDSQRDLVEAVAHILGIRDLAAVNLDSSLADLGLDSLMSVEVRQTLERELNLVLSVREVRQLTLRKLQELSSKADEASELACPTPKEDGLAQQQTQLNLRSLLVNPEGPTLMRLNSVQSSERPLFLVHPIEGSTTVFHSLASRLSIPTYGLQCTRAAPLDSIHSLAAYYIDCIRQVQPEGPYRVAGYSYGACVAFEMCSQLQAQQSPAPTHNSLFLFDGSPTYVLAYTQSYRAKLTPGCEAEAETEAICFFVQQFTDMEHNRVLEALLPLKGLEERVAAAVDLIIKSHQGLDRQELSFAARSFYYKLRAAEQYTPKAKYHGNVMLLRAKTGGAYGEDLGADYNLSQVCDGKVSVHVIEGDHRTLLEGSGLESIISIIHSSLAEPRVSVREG

[3] = reduction of Shn3 3'UTR-driven luciferase in osteoblasts – cell-based, Clone20 osteoblasts, firefly luciferase, cherry-picked, dose response (AID 624132); type: functional;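 also: firefly luciferase luminescence from reporter carrying the Shn3 3'UTR in osteoblasts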
[4] = molecular target: T1, Cysteine protease ATG4B (Homo sapiens, UniProt Q9Y4P1); type: functional;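 also: Fluorescence-based dose-response confirmation assay measuring inhibition of ATG4B activity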
T1 sequence (Q9Y4P1 whole entry): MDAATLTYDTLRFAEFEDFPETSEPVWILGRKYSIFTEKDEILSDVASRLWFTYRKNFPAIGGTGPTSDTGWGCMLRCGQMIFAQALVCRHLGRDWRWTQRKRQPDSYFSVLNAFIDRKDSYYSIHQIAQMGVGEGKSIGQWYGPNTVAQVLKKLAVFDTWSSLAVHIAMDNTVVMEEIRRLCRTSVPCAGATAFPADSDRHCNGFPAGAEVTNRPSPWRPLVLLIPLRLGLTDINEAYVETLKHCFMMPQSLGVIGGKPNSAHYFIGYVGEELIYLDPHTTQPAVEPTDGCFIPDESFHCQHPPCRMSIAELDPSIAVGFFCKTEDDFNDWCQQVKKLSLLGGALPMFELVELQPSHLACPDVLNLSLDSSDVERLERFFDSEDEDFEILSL

[5] = blockers of HIV-1 ZM109 envelope-driven cell-cell fusion – HeLa effector, CEM target cells, luciferase, cherry-pick, dose response (AID 652058); type: functional, cell-based;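 also: luciferase signal from HIV-1 Env mediated cell-cell fusion of effector and target cells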
[6] = molecular target: Serine/threonine-protein phosphatase PP1-alpha catalytic subunit (Homo sapiens, UniProt P62136); assay: inhibition of protein phosphatase 1 activity – biochemical, fluorescence, dose response (AID 2394)
Sequence of Serine/threonine-protein phosphatase PP1-alpha catalytic subunit (P62136 whole entry): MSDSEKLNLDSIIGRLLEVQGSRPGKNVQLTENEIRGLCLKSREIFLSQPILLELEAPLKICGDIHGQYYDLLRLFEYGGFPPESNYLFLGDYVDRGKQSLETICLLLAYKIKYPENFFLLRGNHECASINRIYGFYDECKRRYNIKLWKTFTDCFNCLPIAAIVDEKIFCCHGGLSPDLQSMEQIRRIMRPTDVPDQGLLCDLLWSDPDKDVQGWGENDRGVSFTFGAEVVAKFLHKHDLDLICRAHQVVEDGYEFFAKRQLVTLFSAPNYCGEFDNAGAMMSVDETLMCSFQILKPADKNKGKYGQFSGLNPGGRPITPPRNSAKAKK

[7] = molecular target: T2, Sentrin-specific protease 6 (Homo sapiens, UniProt Q9GZR1); type: functional;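 also: Luminescence-based dose-response confirmatory assay of SENP6 inhibition, following up an ultra-high-throughput screen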
T2 sequence (Q9GZR1 whole entry): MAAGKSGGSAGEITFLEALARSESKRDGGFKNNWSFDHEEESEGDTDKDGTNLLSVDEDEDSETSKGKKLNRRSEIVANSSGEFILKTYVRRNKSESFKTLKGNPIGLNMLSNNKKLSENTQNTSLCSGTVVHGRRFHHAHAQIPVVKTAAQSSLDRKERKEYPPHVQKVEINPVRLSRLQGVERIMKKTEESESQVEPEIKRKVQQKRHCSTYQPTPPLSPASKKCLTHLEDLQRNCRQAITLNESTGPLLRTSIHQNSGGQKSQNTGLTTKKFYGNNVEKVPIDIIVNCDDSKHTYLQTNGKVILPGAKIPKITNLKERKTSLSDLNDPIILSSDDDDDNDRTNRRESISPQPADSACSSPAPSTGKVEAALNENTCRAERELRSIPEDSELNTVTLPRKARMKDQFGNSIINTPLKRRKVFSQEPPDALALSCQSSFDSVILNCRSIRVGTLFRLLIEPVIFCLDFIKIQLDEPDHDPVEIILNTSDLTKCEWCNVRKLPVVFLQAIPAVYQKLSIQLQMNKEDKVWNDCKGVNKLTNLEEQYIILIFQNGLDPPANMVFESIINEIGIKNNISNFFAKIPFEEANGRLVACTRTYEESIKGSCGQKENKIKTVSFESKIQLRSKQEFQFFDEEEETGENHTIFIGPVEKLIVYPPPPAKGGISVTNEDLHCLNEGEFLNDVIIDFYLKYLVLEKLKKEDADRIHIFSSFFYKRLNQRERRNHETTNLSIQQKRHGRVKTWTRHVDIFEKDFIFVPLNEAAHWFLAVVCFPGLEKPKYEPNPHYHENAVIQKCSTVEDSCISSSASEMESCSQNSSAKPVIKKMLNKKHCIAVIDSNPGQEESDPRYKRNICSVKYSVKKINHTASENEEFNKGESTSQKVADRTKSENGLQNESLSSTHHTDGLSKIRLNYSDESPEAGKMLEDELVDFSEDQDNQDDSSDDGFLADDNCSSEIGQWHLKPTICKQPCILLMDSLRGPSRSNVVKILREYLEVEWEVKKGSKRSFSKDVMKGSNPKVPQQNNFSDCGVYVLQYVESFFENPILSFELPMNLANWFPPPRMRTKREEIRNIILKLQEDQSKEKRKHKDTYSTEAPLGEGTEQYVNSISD

[8] = molecular target: RNA-editing ligase 1, mitochondrial (Trypanosoma brucei brucei, UniProt P86926); assay: inhibition of trypanosome RNA editing ligase – biochemical, fluorescence, Trypanosoma brucei, dose response (AID 1117295); type: functional
Sequence of RNA-editing ligase 1, mitochondrial (P86926 whole entry): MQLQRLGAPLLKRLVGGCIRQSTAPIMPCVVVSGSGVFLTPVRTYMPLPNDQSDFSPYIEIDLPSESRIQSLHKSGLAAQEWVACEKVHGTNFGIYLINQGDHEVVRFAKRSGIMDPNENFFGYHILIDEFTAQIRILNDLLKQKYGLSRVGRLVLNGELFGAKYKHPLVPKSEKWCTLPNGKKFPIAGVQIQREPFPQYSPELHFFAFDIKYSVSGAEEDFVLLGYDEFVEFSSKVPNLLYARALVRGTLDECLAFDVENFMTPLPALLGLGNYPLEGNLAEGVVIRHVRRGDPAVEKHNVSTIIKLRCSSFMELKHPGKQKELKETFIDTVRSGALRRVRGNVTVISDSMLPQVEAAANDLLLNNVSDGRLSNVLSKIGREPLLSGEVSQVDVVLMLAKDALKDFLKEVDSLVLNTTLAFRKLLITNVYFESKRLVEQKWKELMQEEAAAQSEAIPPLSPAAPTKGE

[9] = molecular target: Voltage-gated N-type calcium channel alpha-1B subunit/Amyloid beta A4 precursor protein-binding family A member 1 (Homo sapiens, UniProt Q00975+Q02410); type: protein assay
[10] = molecular target: T3, Short transient receptor potential channel 4 (Mus musculus, UniProt Q9QUQ5); assay: block of DAMGO-driven TRPC4 calcium entry – cell-based, HEK293 TRPC4/mu-opioid, Fluo-4 calcium, dose response (AID 434942); type: functional;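 also: potency of inhibitors blocking the TRPC4 calcium response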
T3 sequence (Q9QUQ5 whole entry): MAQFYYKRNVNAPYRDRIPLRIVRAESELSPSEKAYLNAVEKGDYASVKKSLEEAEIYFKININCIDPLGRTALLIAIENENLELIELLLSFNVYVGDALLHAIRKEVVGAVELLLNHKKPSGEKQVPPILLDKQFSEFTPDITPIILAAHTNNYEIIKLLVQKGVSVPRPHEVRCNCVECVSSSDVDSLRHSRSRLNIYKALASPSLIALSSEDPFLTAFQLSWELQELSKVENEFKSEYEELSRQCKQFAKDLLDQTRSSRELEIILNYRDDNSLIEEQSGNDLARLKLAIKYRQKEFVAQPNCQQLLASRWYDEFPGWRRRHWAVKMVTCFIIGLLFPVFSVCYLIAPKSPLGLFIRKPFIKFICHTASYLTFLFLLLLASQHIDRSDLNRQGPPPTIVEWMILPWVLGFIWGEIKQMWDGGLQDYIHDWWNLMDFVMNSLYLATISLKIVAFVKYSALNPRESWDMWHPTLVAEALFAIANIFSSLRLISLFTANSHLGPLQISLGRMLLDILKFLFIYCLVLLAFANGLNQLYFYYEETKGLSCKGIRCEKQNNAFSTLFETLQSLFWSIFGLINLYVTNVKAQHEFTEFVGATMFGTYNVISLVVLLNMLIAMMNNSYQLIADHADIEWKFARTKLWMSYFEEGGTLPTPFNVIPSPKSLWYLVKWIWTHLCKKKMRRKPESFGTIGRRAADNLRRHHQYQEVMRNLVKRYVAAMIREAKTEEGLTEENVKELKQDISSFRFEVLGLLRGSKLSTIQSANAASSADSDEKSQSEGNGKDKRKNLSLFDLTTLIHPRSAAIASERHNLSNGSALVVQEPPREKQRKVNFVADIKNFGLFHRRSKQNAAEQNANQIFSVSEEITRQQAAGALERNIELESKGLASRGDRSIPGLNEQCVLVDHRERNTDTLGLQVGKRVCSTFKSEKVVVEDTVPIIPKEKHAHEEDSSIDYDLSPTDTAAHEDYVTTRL

O=C(Nc1ccccc1Cl)/C(Cl)=C(\Cl)[S+]([O-])c1ccccc1 (stereo not given)
CC50 [1]: 28.9 µM (active) | IC50 [2]: 4.66 µM (active) | AC50 [3]: 0.438 µM (active)

CCCCCCCCCCCCCCCCn1cc[n+](C)c1
IC50 [4]: 4.47 µM (active) | AC50 [5]: 23.5 µM (active)

O=C(NC1(O)C(=O)c2ccccc2C1=O)c1ccccc1
IC50 [6]: 49 µM (not active) | IC50 [7]: 2.39 µM (active) | IC50 [8]: 13.7 µM (inactive)

Cc1cc(C)nc(/N=c2/ssnc2Cl)c1
IC50 [9]: 10.6 µM (active)

Cc1ccc(C)c(S(=O)(=O)/N=C2\C=C(NS(=O)(=O)c3ccccc3)C(=O)c3ccccc32)c1
EC50 [10]: 6.68 µM (active)

— ChEMBL document CHEMBL1201862, “PubChem BioAssay data set” (2004)
